This is an account of results in publication PMC5433701, “SPR-based fragment screening with neurotensin receptor 1 generates novel small molecule ligands” (PLoS ONE, 2017).

By Kd is commonly meant a measure of binding affinity in units of concentration. Higher therefore signals weaker binding. Usually Ki stands for the equilibrium dissociation constant of an inhibitor or competing ligand from its target.

Data set [1] in a line: pKa determination. In kind it is physicochemical.
In data set [2] the target is rat NTS1-H4 receptor. Nature of the data set: SPR kinetic binding of reference ligands on captured NTS1-H4 receptor. How it is done:
All SPR binding experiments were performed on Biacore® 3000, T200 and Biacore 4000 (GE Healthcare, Uppsala, Sweden) instruments at 15°C in a running buffer composed of 20 mM Tris, 150 mM NaCl, 0.01% (v/v) L-MNG, 2% (v/v) DMSO, pH 8.0, at flow of 30 μl·min^-1. Running buffer was prepared freshly every day and filtered with Express™Plus Steritop filters with 0.22 μm cut off (Millipore, Billerica, MA, USA) and degassed prior to SPR analysis. Dose-response experiments for peptides were performed in the buffer without DMSO, as the analyzed peptide concentration range was in nM range and it was not necessary to work with DMSO in the running buffer to correct for the resonance signals. […]
All SPR data processing and analyses were performed using BiaEvaluation Software (version 1.0 (Biacore 4000) and 4.1 (Biacore 3000)), and GraphPadPrism (version 6.04). All monitored binding resonance signals were corrected regarding DMSO solvent signals and further double-referenced, i. e., signals monitored on the binding active channel were subtracted by signals from the reference channel (sensor surface not modified with any reference protein) and by buffer signals. […]
For orientation: Surface plasmon resonance follows binding to a sensor surface in real time, without labels.

For data set [3], the target named is NTS1-H4. Further details: method as in PMID 25064156. The note with it: competition with fluorescently labeled NT8-13, NTS1-H4-coated beads; cited from earlier work.
In data set [4] the test system is NTS1-H4 receptor. The data set is described as follows: SPR competition of NT8-13 and SR142948 on NTS1-H4 receptor. The data set is classed as binding, rat. To be noted: 100 nM NT8-13 then 100 nM SR142948 injected subsequently. How it is done:
Supplementary file pone.0175842.s003.pdf: S3 Fig Competition of neurotensin peptide NT8-13 and antagonist SR142948 on the NTS1-H4 receptor. NT8-13 agonist (saturating concentration of 100 nM) and antagonist SR142948 (saturating concentration of 100 nM) were injected subsequently over the NTS1-H4 receptor-coated surface. No binding of SR142948 was detected on the NTS1-H4 receptor that had been saturated previously by agonist NT8-13 peptide, indicating complete occupancy of the binding site and binding to the same binding site. (PDF) Click here for additional data file.

Like-named read-outs stand apart in the source and are kept apart here.

On to `Nc1nnc2c(C(F)(F)F)nc3ccccc3n12` [fragment 1], for which the pKa in data set [1] (read-out: pKa1 ± σ) worked out at 2.14 ± 0.04.

Consider `COc1cccc(S(=O)(=O)c2ccccc2CC(N)=O)c1` [fragment 2], for which the “pKa1 ± σ” value in data set [1] is reported as “out of range”.

Regarding `COc1ccc(N(C(C)C)S(N)(=O)=O)cc1` [fragment 3], the pKa in data set [1] (read-out: pKa1 ± σ) came to 6.49 ± 0.04; in data set [1] (read-out: pKa2), 11.04 ± 0.08.

Take `COc1ccc(Cc2nn[nH]n2)cc1` [fragment 4]: the pKa in data set [1] (read-out: pKa1 ± σ) is 4.86 ± 0.08.

Take SR142948: in data set [2], the equilibrium dissociation constant (Kd) came out at 0.4 nM. Further, the Ki in data set [3] is 0.5 nM. The “binding to NTS1-H4 receptor previously saturated by NT8-13” value in data set [4] is “No binding”.
